According to patent EP3300733A1, “SUBSTANCE SELECTED AMONG IRINOTECAN, AN IRINOTECAN ACTIVE METABOLITE, 5-FLUORO-URACILE, A PHARMACEUTICAL SALT THEREOF AND A MIXTURE THEREOF, FOR USE IN THE TREATMENT OF FIBROSIS” (Centre Hospitalier Universitaire de Bordeaux, priority 2016, dated 2018):
Where two headings read alike, the source gives them in different places.

What was measured:
procollagen I [1] = assay: release of procollagen I protein by dermal fibroblasts (ELISA), dose response; type: cell-based, human; settings: 48h, both cell types (SSC and healthy fibroblasts), vs non-treated
Procedure: (§1) Dermal fibroblasts were obtained from clinically affected skin of systemic sclerosis (SSC) patients and from healthy donors (H). The fibroblasts were grown in DMEM medium containing 2mM of L-glutamine supplemented with 10% foetal bovine serum (FCS) and penicillin/streptomycin antibiotics.
Dermal fibroblasts were plated in DMEM 10% FCS supplemented with 20µg/mL of vitamin C in 96-well plates. 24h before the experiment, medium was switched to DMEM 0% FCS supplemented with 20µg/mL of vitamin C. […] Supernatants were collected to evaluate the procollagen I release level by ELISA kit (ref MK101, supplier Takara) according to manufacter's instructions. Triplicates were done. The level of procollagen I release was presented as fold change compared with the procollagen I release by the same non-treated fibroblasts arbitrary fixed at 100%.

MMP1 mRNA = assay: mRNA expression of fibrosis genes in dermal fibroblasts (qPCR): MMP1; type: cell-based; settings: Homo sapiens, Fibroblast, read-out: average inhibition of MMP1 mRNA levels
Procedure: as §1
(§2) Dermal fibroblasts were plated in DMEM 10% FCS in 24-well plates. 24h before the experiment, medium was switched to DMEM 0% FCS. […] Supernatants were removed and plates were freezed at -80°c. Fibroblasts RNA from each well-plate were extracted with NucleoSpin® RNA Plus kit (Macherey-Nagel) according to manufacter's instructions. Triplicates were done and RNA from triplicates were pooled together. The quantity and quality of RNA were evaluated by capillary electrophoresis (Bioanalyzer 2100, Agilent).
(§3) RNA was used for cDNA synthesis using the Transcriptor Reverse Transcriptase kit (Roche). qPCR reactions were run on a Light Cycler (Roche Molecular Systems Inc.) according to manufacter's instructions. The relative gene expression levels of COL1A1, COL1A2, MMP1, TIMP1, CCL2 and ACTA2 were calculated using the ΔΔCt method. Target mRNA levels were normalized to GAPDH.
(§4) Expression of the genes in the different treated conditions was presented as fold change compared with the gene expression of the same non-treated fibroblasts arbitrary fixed at 100%.

procollagen I [2] = assay: effect of a combination of low SN38 and 5FU doses on procollagen I release (ELISA); type: cell-based, human; settings: 5FU 1 µg/ml alone (condition B), 48h; patient SSC2, SSC3 or H2
Procedure: Dermal fibroblasts were plated in DMEM 10% FCS supplemented with 20µg/mL of vitamin C in 96-well plates. 24h before the experiment, medium was switched to DMEM 0% FCS supplemented with 20µg/mL of vitamin C. Cells were treated for 48h with SN38 (0.006 µg/mL), 5FU (1 µg/mL) or a combination (SN38 0.006 µg/mL and 5FU 1 µg/mL) in DMEM 0% FCS supplemented with 20µg/mL of vitamin C. Supernatants were collected to evaluate the procollagen I release level by ELISA kit (ref MK101, supplier Takara) according to manufacter's instructions. Triplicates were done. The level of procollagen I release was presented as fold change compared with the procollagen I release by the same non-treated fibroblasts arbitrary fixed at 100%.

COL1A1 mRNA = assay: mRNA expression of fibrosis genes in dermal fibroblasts (qPCR): COL1A1; type: cell-based; settings: Homo sapiens, Fibroblast, read-out: average inhibition of COL1A1 mRNA levels
Procedure: as §1, §2, §3, §4

dermal fibroblasts = assay: cytotoxicity on the fibroblasts (data not shown); type: cell-based, human
CCL2 mRNA = assay: mRNA expression of fibrosis genes in dermal fibroblasts (qPCR): CCL2; type: cell-based; settings: Homo sapiens, Fibroblast, 24h, SSc and healthy fibroblasts, vs non-treated, read-out: average inhibition of CCL2 mRNA levels
Procedure: as §1, §2, §3, §4

COL1A2 mRNA = assay: mRNA expression of fibrosis genes in dermal fibroblasts (qPCR): COL1A2; type: cell-based; settings: Homo sapiens, Fibroblast, read-out: average inhibition of COL1A2 mRNA levels
Procedure: as §1, §2, §3, §4

TIMP1 mRNA = assay: mRNA expression of fibrosis genes in dermal fibroblasts (qPCR): TIMP1; type: cell-based; settings: Homo sapiens, Fibroblast, read-out: average inhibition of TIMP1 mRNA levels
Procedure: as §1, §2, §3, §4

[3] = test system: idiopathic pulmonary fibrosis; settings: on one year, 72 week phase III trial; cited from earlier work
ACTA2 mRNA = assay: mRNA expression of fibrosis genes in dermal fibroblasts (qPCR): ACTA2; type: cell-based; settings: Homo sapiens, Fibroblast, read-out: average inhibition of ACTA2 mRNA levels
Procedure: as §1, §2, §3, §4

diffuse scleroderma = assay: clinical case: patient with diffuse scleroderma treated with chemotherapy; type: in vivo, human; settings: methotrexate 7.5 mg to 10 mg per week for 5 years before admission
Excerpt: A person was referred for fever and abdominal pain. Their medical history was mainly represented by a systemic scleroderma diagnosed 20 years before and with digestive, cutaneous and rheumatologic involvement. […] Blood test found anti topo-I antibodies to high level (141 IU/mL, normal range 0-29). […] The modified Rodnan score was 24/51.
Then, it was proposed to the patient 4 cycles of chemotherapy FOLFORINOX followed by rectal surgery.
The patient received 4 cycles of FOLFORINOX (oxaliplatine 85 mg/m^2, irinotecan 180 mg/m^2, 5-fluoro-uracil 400 mg/m^2 flash then 2400 mg/m^2 the following 46 hours). Cycles of chemotherapy were administered every 14 days on January 13 and 27, and February 11 and 25, 2014.
Then, the patient had surgery and according to post-surgical piece, it was realized 6 cycles of FOLFOX (folinic acid, oxaliplatine and 5-fluorouracil) with no new improvement during these last 6 cycles.

[4] = test system: diffuse cutaneous systemic sclerosis; settings: cited from earlier work
[5] = 5FU 384 µM (highest dose), 24h, SSc and healthy fibroblasts, vs non-treated
[6] = all the doses used in the procollagen I release test (irinotecan 0.006-40 µg/ml, SN38 0.00006-0.6 µg/ml, 5FU 0.3-80 µg/ml)
[7] = irinotecan 32 µM (highest dose), 24h, SSc and healthy fibroblasts, vs non-treated
[8] = control group (cyclophosphamide), share of patients

For `O=c1[nH]cc(F)c(=O)[nH]1` [5FU, 5-Fluoro-1H,3H-pyrimidine-2,4-dione], the “release of procollagen I protein” value (procollagen I [1]; 80µg/mL) was “significantly decreased”, the inhibition at 384 µM (MMP1 mRNA; [5]) was 37% and the “procollagen I release” value (procollagen I [2]) was “not observed”. The inhibition at 384 µM (COL1A1 mRNA; [5]) was 17%, the “cytotoxic on the fibroblasts” value (dermal fibroblasts; 38.4 µM and 384 µM) was “not cytotoxic” and the “cytotoxic on the fibroblasts” value (dermal fibroblasts; [6]) was “not cytotoxic”. The inhibition at 384 µM (CCL2 mRNA; 5FU 384 µM (highest dose)) was 31%, the inhibition at 384 µM (COL1A2 mRNA; [5]) was 12% and the inhibition at 384 µM (TIMP1 mRNA; [5]) was 15%.
In the case of `Cc1ccc(=O)n(-c2ccccc2)c1` [Pirfenidone], the “reduce decline in lung function (forced vital capacity, FCV)” value [3] is listed as 4.4%.
For `CCc1c2c(nc3ccc(OC(=O)N4CCC(N5CCCCC5)CC4)cc13)-c1cc3c(c(=O)n1C2)COC(=O)[C@]3(O)CC` [irinotecan, (S)-4,11-diethyl-3,4,12,14-tetrahydro-4-hydroxy-3,14-dioxo1H-pyrano[3',4':6,7]-indolizino[1,2-b]quinolin-9-yl-[1,4'bipiperidine]-1'-carboxylate], the “release of procollagen I protein” value (procollagen I [1]; 40µg/mL) was “significantly decreased”, the inhibition at 32 µM (MMP1 mRNA; [7]) was 32% and the inhibition at 32 µM (COL1A1 mRNA; [7]) was 27%. The inhibition at 32 µM (ACTA2 mRNA; [7]) was 33%, the “cytotoxic on the fibroblasts” value (dermal fibroblasts; 3.2 µM and 32 µM) was “not cytotoxic” and the “cytotoxic on the fibroblasts” value (dermal fibroblasts; [6]) was “not cytotoxic”. The inhibition at 32 µM (CCL2 mRNA; irinotecan 32 µM (highest dose)) was 19% and the inhibition at 32 µM (COL1A2 mRNA; [7]) was 22%.
For `CCc1c2c(nc3ccc(O)cc13)-c1cc3c(c(=O)n1C2)COC(=O)[C@]3(O)CC` [SN38, 7-Ethyl-10-hydroxy-camptothecin], the “release of procollagen I protein” value (procollagen I [1]; 0.3 µg/mL) was “significantly decreased”, the “release of procollagen I protein” value (procollagen I [1]; 0.6 µg/mL) was “significantly decreased” and the inhibition at 1 µM (MMP1 mRNA; 24 h) was 42%. For the same compound, the inhibition at 1 µM (COL1A1 mRNA; 24 h) was 57.5%, the inhibition at 1 µM (ACTA2 mRNA; 24 h) was 55% and the “cytotoxic on the fibroblasts” value (dermal fibroblasts; 0.1 µM and 1 µM) was “not cytotoxic”. The “cytotoxic on the fibroblasts” value (dermal fibroblasts; [6]) was “not cytotoxic”, the inhibition at 1 µM (COL1A2 mRNA; 24 h) was 52% and the inhibition at 1 µM (TIMP1 mRNA; 24 h) was 22%.
With `CN(Cc1cnc2nc(N)nc(N)c2n1)c1ccc(C(=O)N[C@@H](CCC(=O)O)C(=O)O)cc1` [methotrexate] the “impact on scleroderma evolution” value (diffuse scleroderma) was “without substantial impact”.
For `O=P1(N(CCCl)CCCl)NCCCO1` (stereo not shown) [cyclophosphamide], the “events, cumulative” value ([4]; control group (cyclophosphamide), at 2 years) is listed as 18.2%, the “events, cumulative” value ([4]; control group (cyclophosphamide), at 4 years) is listed as 26% and the events ([4]; control group (cyclophosphamide), during the first year, no treatment-related deaths) is listed as 10.4%. The “Grade 3 or 4 adverse events” value [4, 8] was 37.0%, the Viral infections [4, 8] was 1.3% and the “events (deaths and irreversible organ failures)” value ([4]; control group (cyclophosphamide, n = 77), median follow-up of 5.8 years, 23 deaths and 8 irreversible organ failures) was 31.
